# Results: patent publication US6677309B1, “Anti-cancer drug aldehyde conjugate drugs with enhanced cytotoxicity compounds, compositions and methods” (University Technology Corporation, priority 1997, dated 2004)
# pIC50: −log10 of the molar value. Where two headings read alike, the source gives them in different places.
# Legend:
# MCF-7 cells = assay: In vitro cytotoxicity, colony formation by crystal violet assay, MCF-7
# Procedure: (§1) The term IC50 as used herein refers to the concentration of drug which inhibits cell growth by 50%, i.e., 50% of cells are viable at the IC50 concentration relative to a no-drug control.
# (§2) Cells were incubated with drug for 3 h in RPMI (Roswell Park Memorial Institute) 1640 media containing 10% fetal bovine serum and 1% DMSO. Plates, were developed using the crystal violet assay. […] In all cases percent survival was determined by the extent of colony formation six days after drug treatment.
# (§3) All tissue culture materials were obtained from Gibco Life Technologies (Grand Island, N.Y.) unless otherwise stated. MCF-7 breast cancer cells were obtained from American Type Culture Collection (Rockville, Md.). […] Both cell lines were maintained in vitro by serial culture in phenol red-free RPMI Media 1640 supplemented with 10% fetal bovine serum (Gemini Bio-Products, Calbasas, Calif.), L-glutamine (2 mM), HEPES buffer (10 mM), penicillin (100 units/mL), and streptomycin (100 μg/mL). […] Cells were maintained at 37° C. in a humidified atmosphere of 5% CO2 and 95% air.
# (§4) Cells were dissociated with trypsin-EDTA, counted, and suspended in growth media to a concentration of 5×10^3 cells/mL. Cell suspensions were dispensed in 200 μL aliquots into 96-well tissue culture plates. Plates were then incubated for 24 h at 37° C. in a humidified atmosphere of 5% CO2 and 95% air. The media was replaced with 180 μL of growth media prior to addition of the cytotoxic agents.
# (§5) Concentrations were then corrected by measuring the solution absorbance at 480 nm (ε=11,500/mole anthracycline). The solutions were then serially diluted in DMSO to give a series of 100× working concentration solutions. For each concentration, the 100× solution was diluted 1:10 in serum-free RPMI Media 1640. 20 μL of the resulting […] solution was immediately added to the appropriate lane. Additionally, one lane was treated with 20 μL of 10% DMSO in serum-free RPMI (no drug) and one lane replaced with 200 μL of 1.5 M Tris buffer (no cells). The cells were incubated at 37° C. for 3 h. The drug solutions were removed and 200 μL of fresh growth media was added to each well.
# (§6) The extent of colony formation was determined by use of a crystal violet staining assay (Gilles, R. J. et al. (1986), “Determination of cell number in monolayer cultures,” Anal. Biochem. 159:109-113; Reile, H. et al. (1990), “Computerized determination of growth kinetic curves and doubling times from cells in microcultures,” Anal. Biochem. 187:262-267). […] The cells were then stained with 75 μL of 0.1% crystal violet in deionized water for 30 min. […] The plates were blotted dry and 200 μL of 70% ethanol in water was added to each well to solublize the dye. The plates were stored at 4° C. until solubilization was complete (about 4 h). The optical density of each well was measured on an ELISA plate reader at 588 nm. Relative colony sizes were determined by comparison of the drug treated lanes to the control lanes.
# (§7) MCF-7 breast cancer cells were obtained from American Type Culture Collection (Rockville, Md.). MCF-7/ADR adriamycin resistant breast cancer cells were a gift of Dr. William W. Wells (Michigan State University). Both cell lines were maintained in vitro by serial culture in phenol red-free RPMI Media 1640 supplemented with 10% fetal bovine serum (Gemini Bio-Products, Calbasas, Calif.), L-glutamine (2 mM), HEPES buffer ([…]), penicillin (100 units/mL), and streptomycin (100 μg/mL). […] Cells were maintained at 37° C. in a humidified atmosphere of 5% CO2 and 95% air.
# 1640 media containing 10% fetal bovine serum. The resulting 90% media/10% DMSO solutions (v/v) were incubated at 37° C. for 6h.
# MCF-7/ADR cells = assay: In vitro cytotoxicity, colony formation by crystal violet assay, MCF-7/ADR
# Procedure: as §1, §2, §3, §4, §5, §6, §7
# These were then diluted 10× with autoclaved Millipore water.
# LNCaP = assay: Prostate cancer cell cytotoxicity, crystal violet assay, LNCaP; format: cell-based, human; details: for IC50: 3 h drug, 4 days growth
# Procedure: (§8) Toxicity to the three prostate cancer cell lines, LNCaP, DU-145, and PC-3 were measured in two different media, RPMI-1640 and DMEM (Dulbecco's Modified Eagle Medium), both supplemented with 10% fetal bovine serum.
# (§9) Cell lines were maintained in vitro in RPMI 1640 media or DMEM, each supplemented with 10% fetal bovine serum, 2 mM L-glutamine, 10 mM HEPES buffer, penicillin (100 units/mL) and streptomycin (100 μg/mL).
# (§10) Cells were dissociated with trypsin/EDTA, counted, and suspended in growth media (RPMI or DMEM) to a concentration of 5.6×10^3 cells/mL. Cell suspensions were dispensed in 180 μL aliquots into 96-well tissue culture plates. […] Each 100× solution was diluted 10× in growth media (RPMI or DMEM), and a 20 μL aliquot of the resulting 10× solution was immediately (<10s) added to-the appropriate lane. Additionally, one lane was treated with 20 μL of 10% DMSO in growth media (no drug) and one lane was treated with 200 μL of 1.5 M Tris buffer (no cells). The cells were incubated with the drugs for 3 h at 37° C. The drug solutions were then removed and replaced with 200 μL of fresh media. The cells were incubated for 4 days (7 days for PC-3 cells in DMEM) at 37° C. in a humidified atmosphere of 5% CO2 and 95% air. Cell survival was determined using a crystal violet assay as described earlier (Fenick, D. J. et al (1997) J. Med. Chem. 40: 2452-2461).
# DU-145 = assay: Prostate cancer cell cytotoxicity, crystal violet assay, DU-145; format: cell-based, human; details: for IC50: 3 h drug, 4 days growth
# Procedure: as §8, §9, §10
# PC-3 = assay: Prostate cancer cell cytotoxicity, crystal violet assay, PC-3; format: cell-based, human; details: for IC50: 3 h drug
# Procedure: as §8, §9, §10
# [1] = system: self-complementary DNA octamer (GC)4; assay: Drug-DNA conjugate formation with (GC)4, HPLC; format: biochemical; details: 5 h
# Procedure: The amount of available formaldehyde was 99 μM (3×33 μM). […] The experiment was also run at 25° C. in pH 6.0 phosphate buffer containing 4% DMSO. […] The ratio for conjugate 1 was assumed to be 24:1, based upon the value for conjugate 2. […] Under these circumstances, the conjugate 1 area was estimated based upon its 480 nm absorbance, assuming the 24:1 ratio for A260:A480.
# The formation of drug-DNA conjugates at 25° C. was monitored by HPLC (Method II). […] The experiment was also run in pH 6.0 phosphate buffer containing 4% DMSO.
# [2] = Homo sapiens, MCF7, read-out: IC50 Values, MCF-7
# [3] = Homo sapiens, NCI/ADR-RES, read-out: IC50 Values, MCF-7-ADR
# [4] = Homo sapiens, LNCaP, DMEM with 10% fetal bovine serum, read-out: IC50 Values, LNCaP/DMEM (converted)
# [5] = Homo sapiens, LNCaP, RPMI-1640 with 10% fetal bovine serum, read-out: IC50 Values, LNCaP/RPMI-1640 (converted)
# [6] = Homo sapiens, DU-145, DMEM with 10% fetal bovine serum, read-out: IC50 Values, DU-145/DMEM (converted)
# [7] = Homo sapiens, PC-3, DMEM with 10% fetal bovine serum, 7 days growth, read-out: IC50 Values, PC-3/DMEM (converted)
# [8] = Homo sapiens, PC-3, RPMI-1640 with 10% fetal bovine serum, 4 days growth, read-out: IC50 Values, PC-3/RPMI-1640 (converted)
structure (smiles),measurement,setting,value
"COc1cccc2c1C(=O)c1c(O)c3c(c(O)c1C2=O)C[C@@](O)(C(C)=O)C[C@@H]3O[C@H]1C[C@H](N)[C@H](O)[C@H](C)O1 [DAUN, daunorubicin, reference compound]",pIC50,MCF-7 cells; [2],7.22
same,pIC50,MCF-7/ADR cells; [3],5.70
same,pIC50,"LNCaP; Homo sapiens, LNCaP, read-out: IC50 Values, LNCaP/DMEM",8.10
same,pIC50,"LNCaP; Homo sapiens, LNCaP, read-out: IC50 Values, LNCaP/RPMI-1640",7.70
same,pIC50,"DU-145; Homo sapiens, DU-145, read-out: IC50 Values, DU-145/DMEM",7.60
same,pIC50,"DU-145; Homo sapiens, DU-145, read-out: IC50 Values, DU-145/RPMI-1640",7.00
same,pIC50,"PC-3; Homo sapiens, PC-3, read-out: IC50 Values, PC-3/DMEM",7.70
same,pIC50,"PC-3; Homo sapiens, PC-3, read-out: IC50 Values, PC-3/RPMI-1640",7.70
"COc1cccc2c1C(=O)c1c(O)c3c(c(O)c1C2=O)C[C@@](O)(C(=O)CO)C[C@@H]3O[C@H]1C[C@H](N)[C@H](O)[C@H](C)O1 [DOX, doxorubicin, reference compound]",pIC50,MCF-7/ADR cells; [3],5.00
same,IC50,LNCaP; [4],15 nM
same,IC50,LNCaP; [5],20 nM
same,IC50,DU-145; [6],60 nM
same,IC50,PC-3; [7],60 nM
same,IC50,PC-3; [8],30 nM
"COc1cccc2c1C(=O)c1c(O)c3c(c(O)c1C2=O)C[C@@](O)(C(=O)CO)C[C@@H]3O[C@H]1C[C@H](N)[C@@H](O)[C@H](C)O1 [EPI, epidoxorubicin, reference compound]",pIC50,MCF-7 cells; [2],6.70
same,pIC50,"MCF-7 cells; Homo sapiens, MCF7, read-out: IC50 Values, MCF-7, Media/Serum",< 5.00
same,pIC50,MCF-7/ADR cells; [3],< 5.00
same,IC50,LNCaP; [4],20 nM
same,IC50,LNCaP; [5],20 nM
same,IC50,DU-145; [6],40 nM
same,IC50,PC-3; [7],60 nM
same,IC50,PC-3; [8],30 nM
same,DNA reacted to form drug-DNA conjugates,"[1]; 33 μM (GC)4, 66 μM epidoxorubicin plus 99 μM formaldehyde, pH 6.0, 4% DMSO",51%
same,DNA reacted to form drug-DNA conjugates,"[1]; 33 μM (GC)4, 66 μM epidoxorubicin plus 99 μM formaldehyde, pH 7.3, 4% DMSO, 25° C.",75%
same,DNA reacted to form drug-DNA conjugates,"[1]; 166 μM (GC)4, 664 μM epidoxorubicin plus 996 μM HCHO, pH 7.3, 4% DMSO, 25° C.",93%
COc1cccc2c1C(=O)c1c(O)c3c(c(O)c1C2=O)C[C@@](O)(C(=O)CO)C[C@@H]3O[C@H]1C[C@H]2[C@@H](OCN3CN2CO[C@H]2[C@H](C)O[C@@H](O[C@H]4C[C@](O)(C(=O)CO)Cc5c(O)c6c(c(O)c54)C(=O)c4c(OC)cccc4C6=O)C[C@@H]23)[C@H](C)O1 [EPIF],pIC50,"MCF-7 cells; read-out: IC50 Values, MCF-7, Media/Serum, drug preincubated 6 h at 37° C. in 10% DMSO/90% RPMI 1640 containing 10% fetal bovine serum",6.70
same,pIC50,"MCF-7 cells; read-out: IC50 Values, MCF-7, 3 h drug incubation in RPMI 1640, 10% fetal bovine serum, 1% DMSO, colony formation six days after treatment, fresh drug solution",7.49
same,pIC50,"MCF-7/ADR cells; read-out: IC50 Values, MCF-7-ADR, EPIF/DMSO, drug stored in DMSO (not dried) for 20 h at ambient temperature before treatment",6.82
same,pIC50,"MCF-7/ADR cells; read-out: IC50 Values, MCF-7-ADR, EPIF/H2O, drug preincubated in 90% H2O/10% DMSO at 37° C. for 20 h (equilibrium mixture with intermediates B, C, D)",6.70
same,pIC50,"MCF-7/ADR cells; read-out: IC50 Values, MCF-7-ADR, 3 h drug incubation in RPMI 1640, 10% fetal bovine serum, 1% DMSO, colony formation six days after treatment, fresh drug solution",7.46
same,pIC50,"MCF-7/ADR cells; read-out: IC50 Values, MCF-7/ADR, Media/Serum, drug preincubated 6 h at 37° C. in 10% DMSO/90% RPMI 1640 containing 10% fetal bovine serum",6.82
same,IC50,"LNCaP; DMEM with 10% fetal bovine serum, read-out: IC50 Values, LNCaP/DMEM (converted)",1 nM
same,IC50,"LNCaP; RPMI-1640 with 10% fetal bovine serum, read-out: IC50 Values, LNCaP/RPMI-1640 (converted)",3.5 nM
same,IC50,"DU-145; DMEM with 10% fetal bovine serum, read-out: IC50 Values, DU-145/DMEM (converted)",4 nM
same,IC50,"DU-145; RPMI-1640 with 10% fetal bovine serum, read-out: IC50 Values, DU-145/RPMI-1640 (converted)",15 nM
same,IC50,"PC-3; DMEM with 10% fetal bovine serum, 7 days growth, read-out: IC50 Values, PC-3/DMEM (converted)",15 nM
same,IC50,"PC-3; RPMI-1640 with 10% fetal bovine serum, 4 days growth, read-out: IC50 Values, PC-3/RPMI-1640 (converted)",3.5 nM
"C=O [formaldehyde, reference compound]",pIC50,"MCF-7 cells; Homo sapiens, MCF7, read-out: IC50 value, control experiment, MCF-7",< 3.70
same,pIC50,"MCF-7/ADR cells; Homo sapiens, NCI/ADR-RES, read-out: IC50 value, control experiment, MCF-7/ADR",< 3.70
